Experimental data from patent US10875876B2, “Cyclized sulfamoylarylamide derivatives and the use thereof as medicaments for the treatment of hepatitis B” (priority 2015, dated 2020).
pEC50: −log10 of the molar value. Where two headings read alike, the source gives them in different places.

Key:
HBV = experiment: anti HBV activity, HepG2.117 cell line, intracellular HBV DNA by realtime PCR; format: cell-based; settings: HepG2.117 cell line (Tet-off), 3 days of treatment, intracellular HBV DNA quantified by realtime PCR, read-out: HBV-AVE-HepG2.117 EC50
Method: The anti HBV activity was measured using the HepG2.117 cell line, a stable, inducibly HBV producing cell line, which replicates HBV in the absence of doxicycline (Tet-off system). For the antiviral assay, HBV replication was induced, followed by a treatment with serially diluted compound in 96-well plates in duplicate. After 3 days of treatment, the antiviral activity was determined by quantification of intracellular HBV DNA using realtime PCR and an HBV specific primer set and probe.

[1] = Cytotoxicity in HepG2 cells, Resazurin assay; settings: human, HepG2 cells, TOX-HepG2-4 d CC50 (μM), HepG2 cells incubated for 4 days, viability by Resazurin assay
[2] = Hepatitis B virus, HepG2.117, 72 h

Compound	pEC50 (HBV; [2])	CC50 at 4 days [1]	pEC50 (HBV)
CC[C@@H]1COc2c(cn(C)c2C(=O)Nc2ccc(F)c(F)c2)S(=O)(=O)N1 [Compound 20, (3R)—N-(3,4-difluorophenyl)-3-ethyl-7-methyl-1,1-dioxo-3,4-dihydro-2H-pyrrolo[3,4-b][1,4,5]oxathiazepine-6-carboxamide]	7.24	> 25 µM	
Cn1cc2c(c1C(=O)Nc1ccc(F)c(F)c1)OCC(C1CCN(CC(F)(F)F)CC1)NS2(=O)=O (centres unmarked) [Compound 78, N-(3,4-difluorophenyl)-7-methyl-1,1-dioxo-3-[1-(2,2,2-trifluoroethyl)-4-piperidyl]-3,4-dihydro-2H-pyrrolo[3,4-b][1,4,5]oxathiazepine-6-carboxamide]	7.25	> 25 µM	
C=C1c2c(cn(C)c2C(=O)Nc2ccc(F)c(F)c2)S(=O)(=O)NC1C(C)C (centres unmarked) [compound 237]	< 6.30	> 25 µM	
C[C@@H](O)[C@H]1COc2c(cn(C)c2C(=O)Nc2ccc(F)c(F)c2)S(=O)(=O)N1 [Compound 33, (3R)—N-(3,4-difluorophenyl)-3-[(1R)-1-hydroxyethyl]-7-methyl-1,1-dioxo-3,4-dihydro-2H-pyrrolo[3,4-b][1,4,5]oxathiazepine-6-carboxamide]	7.28	> 25 µM	
C[C@@H]1NS(=O)(=O)c2cn(C)c(C(=O)Nc3ccc(F)c(F)c3)c2O[C@H]1C [compound 229]	< 6.30	> 25 µM	
C[C@H]1CCc2c(cn(C)c2C(=O)Nc2ccc(F)c(C(F)(F)F)c2)S(=O)(=O)N1 (single isomer, unassigned) [Compound 40, (3*S)—N-[4-fluoro-3-(trifluoromethyl)phenyl]-3,7-dimethyl-1,1-dioxo-2,3,4,5-tetrahydropyrrolo[3,4-f]thiazepine-6-carboxamide]	7.66	> 25 µM	
C[C@H](O)[C@H]1CCc2c(cn(C)c2C(=O)Nc2ccc(F)c(F)c2)S(=O)(=O)N1 [Compound 88, (3R)—N-(3,4-difluorophenyl)-3-[(1S)-1-hydroxyethyl]-7-methyl-1,1-dioxo-2,3,4,5-tetrahydropyrrolo[3,4-f]thiazepine-6-carboxamide]	7.96	> 25 µM	
CN(C)CC1COc2c(cn(C)c2C(=O)Nc2ccc(F)c(F)c2)S(=O)(=O)N1 (centres unmarked) [Compound 110, N-(3,4-difluorophenyl)-3-(dimethylaminomethyl)-7-methyl-1,1-dioxo-3,4-dihydro-2H-pyrrolo[3,4-b][1,4,5]oxathiazepine-6-carboxamide]	6.70	> 25 µM	
CC(C)[C@H]1Oc2c(cn(C)c2C(=O)Nc2ccc(F)c(F)c2)S(=O)(=O)N[C@@H]1CO [compound 240]	< 6.60	> 25 µM	
Cn1cc2c(c1C(=O)Nc1ccc(F)c(C(F)F)c1)CCC(C(C)(C)O)NS2(=O)=O (single isomer, unassigned) [Compound 150a, N-[3-(difluoromethyl)-4-fluoro-phenyl]-3-(1-hydroxy-1-methyl-ethyl)-7-methyl-1,1-dioxo-2,3,4,5-tetrahydropyrrolo[3,4-f]thiazepine-6-carboxamide]		> 25 µM	< 6.90
C[C@H]1C=Cc2c(cn(C)c2C(=O)Nc2ccc(F)c(C(F)(F)F)c2)S(=O)(=O)N1 (single isomer, unassigned) [Compound 30, (*S)—N-[4-fluoro-3-(trifluoromethyl)phenyl]-3,7-dimethyl-1,1-dioxo-2,3-dihydropyrrolo[3,4-f]thiazepine-6-carboxamide]	7.89	> 25 µM	
Cn1cc2c(c1C(=O)Nc1ccc(F)c(C#N)c1)CCC(C(C)(O)C(F)(F)F)NS2(=O)=O (centres unmarked) [Compound 117, N-(3-cyano-4-fluoro-phenyl)-7-methyl-1,1-dioxo-3-(2,2,2-trifluoro-1-hydroxy-1-methyl-ethyl)-2,3,4,5-tetrahydropyrrolo[3,4-f]thiazepine-6-carboxamide]	8.00	> 25 µM	
CC(C)C1C=Cc2c(cn(C)c2C(=O)Nc2ccc(F)c(C(F)F)c2)S(=O)(=O)N1 (centres unmarked) [Compound 82, N-[3-(difluoromethyl)-4-fluoro-phenyl]-3-isopropyl-7-methyl-1,1-dioxo-2,3-dihydropyrrolo[3,4-f]thiazepine-6-carboxamide]	8.40	> 25 µM	
Cn1cc2c(c1C(=O)Nc1ccc(F)c(F)c1)OC[C@@H](C(O)C(F)(F)F)NS2(=O)=O (stereo partly drawn) [Compound 123, (3S)—N-(3,4-difluorophenyl)-7-methyl-1,1-dioxo-3-(2,2,2-trifluoro-1-hydroxy-ethyl)-3,4-dihydro-2H-pyrrolo[3,4-b][1,4,5]oxathiazepine-6-carboxamide]	7.72	> 25 µM	
Cn1cc2c(c1C(=O)Nc1ccc(F)c(F)c1)OCC(C)(c1cnccn1)NS2(=O)=O (racemic) [Compound 145, N-(3,4-difluorophenyl)-3,7-dimethyl-1,1-dioxo-3-pyrazin-2-yl-2,4-dihydropyrrolo[3,4-b][1,4,5]oxathiazepine-6-carboxamide]	7.43	> 25 µM	
Cn1cc2c(c1C(=O)Nc1ccc(F)c(F)c1)OC[C@@H](C(F)(F)F)NS2(=O)=O [Compound 61, (3S)—N-(3,4-difluorophenyl)-7-methyl-1,1-dioxo-3-(trifluoromethyl)-3,4-dihydro-2H-pyrrolo[3,4-b][1,4,5]oxathiazepine-6-carboxamide]	7.13	> 25 µM	
COCOC(c1ccccn1)C1COc2c(cn(C)c2C(=O)Nc2ccc(F)c(F)c2)S(=O)(=O)N1 (centres unmarked) [Compound 129, N-(3,4-difluorophenyl)-3-[methoxymethoxy(2-pyridyl)methyl]-7-methyl-1,1-dioxo-3,4-dihydro-2H-pyrrolo[3,4-b][1,4,5]oxathiazepine-6-carboxamide]	7.92	> 25 µM	
C[C@@H]1Oc2c(cn(C)c2C(=O)Nc2ccc(F)c(F)c2)S(=O)(=O)N[C@@H]1C [compound 230]	< 6.30	> 25 µM	
Cn1cc2c(c1C(=O)Nc1cc(F)c(F)c(F)c1)CCC(C(C)(C)O)NS2(=O)=O (single isomer, unassigned) [Compound 149a, 3-(1-hydroxy-1-methyl-ethyl)-7-methyl-1,1-dioxo-N-(3,4,5-trifluorophenyl)-2,3,4,5-tetrahydropyrrolo[3,4-f]thiazepine-6-carboxamide]		> 25 µM	< 6.90
Cn1cc2c(c1C(=O)Nc1ccc(F)c(C(F)F)c1)C=CC1(COC1)NS2(=O)=O [Compound 139, N-[3-(difluoromethyl)-4-fluoro-phenyl]-7-methyl-1,1-dioxo-spiro[2H-pyrrolo[3,4-f]thiazepine-3,3′-oxetane]-6-carboxamide]	7.80	> 25 µM	
Cn1cc2c(c1C(=O)Nc1ccc(F)c(F)c1)OCC(C)(c1ncco1)NS2(=O)=O (racemic) [Compound 160, N-(3,4-difluorophenyl)-3,7-dimethyl-3-oxazol-2-yl-1,1-dioxo-2,4-dihydropyrrolo[3,4-b][1,4,5]oxathiazepine-6-carboxamide]	7.84	> 25 µM	
Cn1cc2c(c1C(=O)Nc1cc(F)c(F)c(F)c1)OC[C@H](C(C)(C)O)NS2(=O)=O [Compound 147, (3R)-3-(1-hydroxy-1-methyl-ethyl)-7-methyl-1,1-dioxo-N-(3,4,5-trifluorophenyl)-3,4-dihydro-2H-pyrrolo[3,4-b][1,4,5]oxathiazepine-6-carboxamide]	7.89	> 25 µM	
